Test system: HOP-62 multicell spheroids with HUVEC/MSC, viability
Assay: Anticancer human tumor HOP-62 cell line growth inhibition [KRAS2];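 note: viability read after a week of compound exposure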;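 for viability, T/C: 100% = DMSO vehicle-treated spheroids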
Conditions: for IC50: curve of first compound; for viability, T/C: stronger effect = lower value
In short: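 Combination screen of spheroid viability in tumor-cell co-cultures with endothelial (HUVEC) and mesenchymal stem cell stroma. Each agent was tested in half-log dilutions, topping at clinical Cmax or at 10 microM without a known Cmax.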

[1] = second compound 0.1 µM, first compound 0.0316 µM
[2] = second compound 0.1 µM, first compound 0.1 µM
[3] = second compound 0.1 µM, first compound 0.316 µM
[4] = second compound 0.1 µM, first compound 1 µM
[5] = second compound 0.1 µM, first compound 3.16 µM
[6] = second compound 0.1 µM, first compound 10 µM
[7] = second compound 0.316 µM, first compound 0.0316 µM
[8] = second compound 0.316 µM, first compound 0.1 µM
[9] = second compound 0.316 µM, first compound 0.316 µM
[10] = second compound 0.316 µM, first compound 1 µM
[11] = second compound 0.316 µM, first compound 3.16 µM
[12] = second compound 0.316 µM, first compound 10 µM
[13] = second compound 1 µM, first compound 0.0316 µM
[14] = second compound 1 µM, first compound 0.1 µM
[15] = second compound 1 µM, first compound 0.316 µM
[16] = second compound 1 µM, first compound 1 µM
[17] = second compound 1 µM, first compound 3.16 µM
[18] = second compound 1 µM, first compound 10 µM
[19] = second compound 3.16 µM, first compound 0.0316 µM
[20] = second compound 3.16 µM, first compound 0.1 µM
[21] = second compound 3.16 µM, first compound 0.316 µM
[22] = second compound 3.16 µM, first compound 1 µM
[23] = second compound 3.16 µM, first compound 3.16 µM
[24] = second compound 3.16 µM, first compound 10 µM
[25] = second compound 10 µM, first compound 0.0316 µM
[26] = second compound 10 µM, first compound 0.1 µM

Q: What does the source list for `COC(=O)c1ccc2c(C(=Nc3ccc(N(C)C(=O)CN4CCN(C)CC4)cc3)c3ccccc3)c(O)[nH]c2c1` + C=CC(=O)N1CCN(c2nc(OCC3CCCN3C)nc3c2CCN(c2cccc4cccc(C)c24)C3)CC1CC#N?
A: IC50 (second compound 0.0316 µM): < 31.6 nM; IC50 (second compound 0.1 µM): < 31.6 nM; IC50 (second compound 0.316 µM): < 31.6 nM; IC50 (second compound 1 µM): < 31.6 nM; IC50 (second compound 3.16 µM): < 31.6 nM; viability, T/C (second compound 0.0316 µM, first compound 0.0316 µM): 42.5%; viability, T/C (second compound 0.0316 µM, first compound 0.1 µM): 36.9%; viability, T/C (second compound 0.0316 µM, first compound 0.316 µM): 28.2%; viability, T/C (second compound 0.0316 µM, first compound 1 µM): 26.6%; viability, T/C (second compound 0.0316 µM, first compound 3.16 µM): 25.1%; viability, T/C (second compound 0.0316 µM, first compound 10 µM): 7.5%; viability, T/C [1]: 30%; viability, T/C [2]: 32.6%; viability, T/C [3]: 21.7%; viability, T/C [4]: 23%; viability, T/C [5]: 20.5%; viability, T/C [6]: 8.85%; viability, T/C [7]: 25.7%; viability, T/C [8]: 21.7%; viability, T/C [9]: 24.1%; viability, T/C [10]: 21.7%; viability, T/C [11]: 20%; viability, T/C [12]: 1.11%; viability, T/C [13]: 26.5%; viability, T/C [14]: 19.2%; viability, T/C [15]: 19.7%; viability, T/C [16]: 17.8%; viability, T/C [17]: 8.02%; viability, T/C [18]: 0.28%; viability, T/C [19]: 6.95%; viability, T/C [20]: 3.11%; viability, T/C [21]: 20.2%; viability, T/C [22]: 0.09%; viability, T/C [23]: 0.09%; viability, T/C [24]: 0.95%

Q: For `CC1OCC2(CCN(c3cnc(Sc4ccnc(N)c4Cl)c(N)n3)CC2)C1N` (stereo not given) + CNCc1ccccc1-c1csc(C(C)Nc2nc(C)nc3cc(OC)c(OC)cc23)c1, which IC50 (second compound 0.1 µM) is on record?
A: The IC50 was over 10000 nM.

Q: And the IC50 (second compound 0.316 µM)?
A: Its IC50 is over 10000 nM.

Q: And the IC50 (second compound 1 µM)?
A: The IC50 was 638 nM.

Q: And the IC50 (second compound 3.16 µM)?
A: The IC50 was under 31.6 nM.

Q: And the IC50 (second compound 10 µM)?
A: The IC50 was under 31.6 nM.

Q: And the viability, T/C [1]?
A: Its viability, T/C is 89.8%.

Q: And the viability, T/C [2]?
A: Its viability, T/C is 80.4%.

Q: And the viability, T/C [3]?
A: Its viability, T/C is 74.1%.

Q: And the viability, T/C [4]?
A: The viability, T/C was 67.5%.

Q: And the viability, T/C [5]?
A: The viability, T/C was 65.3%.

Q: What about the viability, T/C [6] of the same molecule?
A: The viability, T/C was 58.8%.

Q: And the viability, T/C [7]?
A: The viability, T/C was 85.5%.

Q: What about the viability, T/C [8] of the same molecule?
A: Its viability, T/C is 88%.

Q: What about the viability, T/C [9] of the same molecule?
A: The viability, T/C was 69.2%.

Q: And the viability, T/C [10]?
A: The viability, T/C was 53.6%.

Q: And the viability, T/C [11]?
A: Its viability, T/C is 52.3%.

Q: And the viability, T/C [12]?
A: Its viability, T/C is 49.7%.

Q: And the viability, T/C [13]?
A: Its viability, T/C is 82.3%.

Q: And the viability, T/C [14]?
A: Its viability, T/C is 76.2%.

Q: And the viability, T/C [15]?
A: The viability, T/C was 58.8%.

Q: And the viability, T/C [16]?
A: Its viability, T/C is 45.4%.

Q: And the viability, T/C [17]?
A: The viability, T/C was 33.5%.

Q: And the viability, T/C [18]?
A: Its viability, T/C is 34.1%.

Q: And the viability, T/C [19]?
A: The viability, T/C was 34.3%.

Q: And the viability, T/C [20]?
A: Its viability, T/C is 7.49%.

Q: What about the viability, T/C [21] of the same molecule?
A: Its viability, T/C is 0.61%.

Q: What about the viability, T/C [22] of the same molecule?
A: Its viability, T/C is 0.1%.

Q: And the viability, T/C [23]?
A: Its viability, T/C is 0.15%.

Q: What about the viability, T/C [24] of the same molecule?
A: The viability, T/C was 0.15%.

Q: And the viability, T/C [25]?
A: The viability, T/C was 0.13%.

Q: And the viability, T/C [26]?
A: Its viability, T/C is 0.17%.

Q: And the viability, T/C (second compound 10 µM, first compound 0.316 µM)?
A: Its viability, T/C is 0.09%.

Q: And the viability, T/C (second compound 10 µM, first compound 1 µM)?
A: The viability, T/C was 0.09%.

Q: And the viability, T/C (second compound 10 µM, first compound 3.16 µM)?
A: Its viability, T/C is 0.6%.

Q: What about the viability, T/C (second compound 10 µM, first compound 10 µM) of the same molecule?
A: Its viability, T/C is 0.16%.

Q: Which results are given for `CC(C)n1nc(-c2ccc3oc(N)nc3c2)c2c(N)ncnc21` + CC1OCC2(CCN(c3cnc(Sc4ccnc(N)c4Cl)c(N)n3)CC2)C1N?
A: IC50 (second compound 0.1 µM): 1.56 nM; IC50 (second compound 0.316 µM): 0.678 nM; IC50 (second compound 1 µM): 0.392 nM; IC50 (second compound 3.16 µM): < 0.316 nM; IC50 (second compound 10 µM): < 0.316 nM; viability, T/C (second compound 0.1 µM, first compound 0.000316 µM): 76.5%; viability, T/C (second compound 0.1 µM, first compound 0.001 µM): 65.1%; viability, T/C (second compound 0.1 µM, first compound 0.00316 µM): 25.9%; viability, T/C (second compound 0.1 µM, first compound 0.01 µM): 16.4%; viability, T/C [1]: 12.4%; viability, T/C [2]: 8.07%; viability, T/C (second compound 0.316 µM, first compound 0.000316 µM): 69.2%; viability, T/C (second compound 0.316 µM, first compound 0.001 µM): 40.2%; viability, T/C (second compound 0.316 µM, first compound 0.00316 µM): 21.3%; viability, T/C (second compound 0.316 µM, first compound 0.01 µM): 12%; viability, T/C [7]: 10%; viability, T/C [8]: 7.36%; viability, T/C (second compound 1 µM, first compound 0.000316 µM): 54.4%; viability, T/C (second compound 1 µM, first compound 0.001 µM): 30.5%; viability, T/C (second compound 1 µM, first compound 0.00316 µM): 11.9%; viability, T/C (second compound 1 µM, first compound 0.01 µM): 8.81%; viability, T/C [13]: 8.66%; viability, T/C [14]: 6.23%; viability, T/C (second compound 3.16 µM, first compound 0.000316 µM): 26.6%; viability, T/C (second compound 3.16 µM, first compound 0.001 µM): 22.4%; viability, T/C (second compound 3.16 µM, first compound 0.00316 µM): 10.6%; viability, T/C (second compound 3.16 µM, first compound 0.01 µM): 7.28%; viability, T/C [19]: 6.71%; viability, T/C [20]: 4.89%; viability, T/C (second compound 10 µM, first compound 0.000316 µM): 22.5%; viability, T/C (second compound 10 µM, first compound 0.001 µM): 18.2%; viability, T/C (second compound 10 µM, first compound 0.00316 µM): 10.6%; viability, T/C (second compound 10 µM, first compound 0.01 µM): 7%; viability, T/C [25]: 5.54%; viability, T/C [26]: 4.55%

From PubChem BioAssay AID1963858 (Molecular Pharmacology Branch, DTP, NCI, 2024)
